Common to all, as to type: in vivo, human
Data set [1] concerns patient with HIT with thrombosis. The text has this:
A person experienced pregnancy-induced hypertension and sudden weight gain during the third trimester of pregnancy. Premature labor led to the delivery of twins at 31 weeks gestation. After delivery, the patient remained hypertensive. On post-partum day 7, they awoke with chest pain and shortness of breath. They were lethargic with a blood pressure of 190/96 mm Hg and heart rate 135 beats per minute.
On postpartum day 10, the patient was transferred to another hospital for left hemiparesis. A non-hemorrhagic right cerebral infarction was confirmed by computed tomography. During days 4 to 7 of heparin therapy, platelet counts fluctuated between 163×10^9/L and 99×10^9/L with no clear downward trend. A platelet count was not obtained on day 8. However, on day 9 of heparin therapy, the patient's right leg became ischemic and their platelet count decreased to 34×10^9/L. HIT was suspected and heparin was immediately discontinued. The patient was taken to the operating room and Fogerty balloon thrombectomy of the right superficial and profunda arteries removed a typical red, fleshy acute thrombus. The clinical diagnosis of HIT with thrombosis was confirmed by the detection of heparin/PF4 antibodies in the patient's day 9 serum (but not in their serum from day 3) using an in-vitro functional test, the serotonin release assay (SRA).
An alternative anticoagulant was needed for further treatment of their pulmonary embolism and to prevent further thrombosis of the right femoral artery. The direct thrombin inhibitor Argatroban was initiated at 2 mcg/kg/min and titrated to achieve an activated partial thromboplastin time (aPTT) of 1.5 to 3.0 times the patient's baseline aPTT value.
After 6 days of Argatroban monotherapy and recovery of the platelet count to >100×10^9/L, warfarin was initiated concomitantly. Warfarin was started at the expected daily dose of 5 mg. On the 4th day of concomitant therapy, Argatroban infusion was held for 4 hours (to eliminate the effects of Argatroban on the INR) and the INR was rechecked to assure a therapeutic INR on warfarin alone. The INR was 2.1, which is considered therapeutic for the underlying medical condition, so the Argatroban was discontinued.

Data set [2] has the same test system. As to the kind of experiment: Example 3 patient case: Argatroban with transition to warfarin, avoiding warfarin-induced skin necrosis and venous limb gangrene. The text has this:
The following patient case is an example of an appropriate transition to warfarin, because Argatroban therapy is continued for at least 5 days and until the patient's platelet count has recovered to >100×10^9/L. In addition, concomitant therapy with Argatroban and warfarin overlaps for at least 4-5 days.
A person presented to the hospital with an acute myocardial infarction, for which they received tissue plasminogen activator and heparin. Their platelet count was 190×10^9/L on admission. They underwent coronary artery bypass grafting several days later, and heparin was continued throughout the peri-operative period. Postoperatively, the patient experienced atrial fibrillation, and warfarin was initiated. Four days postoperatively, they developed pain and discoloration of the left breast and right leg. The platelet count was 60×10^9/L and the INR was 6.1. Unfortunately, the breast and leg lesions progressed rapidly and the patient ultimately required a mastectomy and below the knee amputation. Five weeks later, they were readmitted with upper extremity swelling. The platelet count was 126×10^9/L on readmission. Ultrasound confirmed axillary/subclavian and femoral venous thromboses, for which heparin therapy was re-initiated. The platelet count fell from 126×10^9/L to 26×10^9/L after 3 days of intravenous heparin, and the diagnosis of HIT with thrombosis was made. The patient's initial breast and leg lesions are examples of warfarin-induced skin necrosis and venous limb gangrene, respectively, which are possible clinical manifestations of HIT. The patient was started on Argatroban 2 mcg/kg/min and the dose was titrated to maintain aPTT values between 1.5 and 3 times their baseline aPTT. […] Argatroban was continued for 11 days. On day 6 of Argatroban therapy, warfarin was initiated at the estimated daily dose of 5 mg. At that time, the platelet count was 150×10^9/L. Concomitant therapy with Argatroban and warfarin was continued for […] in accordance with the recommended overlap of 4 to 5 days. On the 5th day of concomitant therapy, the Argatroban was held for 6 hours and the INR value reflecting warfarin therapy alone was checked. The INR was 2.9 and the Argatroban infusion was subsequently discontinued. • See e.g.: • Warkentin T E, Elavathil L J, Hayward C P M, et al. The pathogenesis of venous limb gangrene associated with heparin-induced thrombocytopenia. Ann Intern Med. 1997; 127:804-812. • Smythe M A, Warkentin T E, Stephens J L, et al. Venous limb gangrene during overlapping therapy with warfarin and a direct thrombin inhibitor for immune heparin-induced thrombocytopenia. Am J Hematol 2002; 71:50-52. • Srinivasan A F, Rice L, Bartholomew J R, et al. Warfarin-induced skin necrosis and venous limb gangrene in the setting of heparin-induced thrombocytopenia. […]

The next data set deals with patients with HIT. The data set is described as follows: Clinical trial of 304 patients with HIT with or without thrombosis who received argatroban; outcome by platelet count on day of argatroban cessation. The text has this: In a clinical trial of 304 patients with HIT with or without thrombosis who received argatroban, 165 patients with active HIT had platelet count data available for the day of argatroban cessation. […] Therefore, we recommend these approaches for refining the existing method of therapy in patients with HIT receiving Argatroban.

The test system of data set [3] is patient with HIT with thrombosis (HITT). As to the kind of experiment: Example 1 patient case: Argatroban monotherapy in HIT with thrombosis, serial platelet counts. Here is the method:
The patient is a person with a history of hypertension and hyperlipidemia who presented to the emergency department (ED) complaining of chest pain. […] The patient was admitted to the Coronary Care Unit and was treated with aspirin, intravenous nitroglycerin, metoprolol, and intravenous heparin. The platelet count on admission was 212×10^9/L. Serial cardiac enzymes and troponin concentrations were negative for a myocardial infarction. […] Coronary artery bypass grafting was performed 2 days later with an uneventful postoperative course. They were discharged from the hospital 7 days after the surgery in good condition and their platelet count was 136×10^9/L. One week later, the patient returned to the ED complaining of the acute onset of a cold and painful swollen left leg. Their medications included aspirin 325 mg daily, metoprolol 75 mg twice daily, NitroDur 20 mg daily and atorvastatin 20 mg daily. The physical examination was normal with the exception of mild hypertension and a cold, swollen left leg with blue discoloration from the knee down. In addition, the left popliteal pulse was faint and the left ankle pulse was non-palpable. […] Intravenous heparin was started and the patient was sent to the operating room for emergency surgery. A femoro-popliteal bypass was performed with a graft and there was an initial return of arterial blood flow to the lower leg. However, before the incision was closed, the graft re-occluded. The graft was opened and explored with an embolectomy catheter. A large amount of whitish granular material was found and subsequently removed from the distal end of the graft. Pulses returned to the lower leg and the incision was closed. By the time the closure was complete, the graft had again re-occluded. The finding of a platelet-rich “white clot” during this surgery along with thrombocytopenia alerted physicians to suspect HIT with thrombosis (HITT). Heparin was immediately discontinued and the DTI Argatroban was initiated (at 2 mcg/kg/min) that evening (day 1 of Argatroban). On the following day, the patient's left lower leg remained cold, blue and pulseless. They were transferred to another hospital where an amputation was performed. Argatroban was continued for 10 days. The platelet count began improving with the following serial platelet counts: 62×10^9/L on day 4, 78×10^9/L on day 6, 110×10^9/L on day 8 and 180×10^9/L on day 10. The patient was measured for a prosthetic leg and they underwent intense physical therapy for 6 months.

Like-named read-outs stand apart in the source and are kept apart here.

For the molecule `CC(=O)CC(c1ccccc1)c1c(O)c2ccccc2oc1=O` (stereo not shown) [warfarin], in data set [1] (warfarin 5 mg daily, 4th day of concomitant therapy, Argatroban infusion held for 4 hours), the “INR on warfarin alone” value is 2.1. The molecule further displayed an INR in data set [2] (four days postoperatively, warfarin initiated during heparin exposure, onset of skin necrosis and venous limb gangrene, platelet count 60×10^9/L) of 6.1. In data set [2] (warfarin 5 mg daily, 5th day of concomitant therapy, Argatroban held for 6 hours), the “INR value reflecting warfarin therapy alone” value is reported as 2.9.

Consider heparin, for which the platelet count in data set [1] (human, in vivo) stood at 3.4e+10 L⁻¹; in data set [2] (human, in vivo, iv), 2.6e+10 L⁻¹.

As for `CC1CNc2c(cccc2S(=O)(=O)N[C@@H](CCCNC(=N)N)C(=O)N2CC[C@@H](C)C[C@@H]2C(=O)O)C1` (stereo partly shown) [Argatroban], the “patients who experienced the composite endpoint of either death, amputation or new thrombosis” value with patients with HIT (41 patients with platelet count <100×10^9/L on the day argatroban therapy was discontinued) was 61%; with patients with HIT (124 patients with platelet count >100×10^9/L on the day argatroban therapy was discontinued), 31.5%. Further, the platelet count in data set [3] (day 4 of Argatroban, initiated at 2 mcg/kg/min, 41×10^9/L before) was 6.2e+10 L⁻¹; in data set [3] (day 6 of Argatroban), 7.8e+10 L⁻¹; in data set [3] (day 8 of Argatroban), 1.1e+11 L⁻¹; in data set [3] (day 10 of Argatroban) it was 1.8e+11 L⁻¹; in data set [1] (hospital day 10, day 2 of Argatroban therapy, 34 × 10^9/L prior to initiation), 5.5e+10 L⁻¹; in data set [1] (hospital day 13, day 5 of Argatroban therapy), 1.1e+11 L⁻¹. Besides, the “platelet count” value in data set [1] (hospital day 14, day 6 of Argatroban therapy) was found to be 1.6e+11 L⁻¹; in data set [1] (hospital day 16, day 8 of Argatroban therapy (warfarin concomitant)), 1.49e+11 L⁻¹; in data set [1] (hospital day 18, day 10 of Argatroban therapy (warfarin concomitant)), 2.1e+11 L⁻¹; in data set [1] (hospital day 20, day 12 of Argatroban therapy) it was 2.8e+11 L⁻¹; in data set [2] (day 6 of Argatroban therapy, when warfarin was initiated, 26×10^9/L before Argatroban), 1.5e+11 L⁻¹. Besides, the “recovery of the platelet count” value in data set [1] (after 6 days of Argatroban monotherapy) is > 1e+11 L⁻¹.
